Test results from article PMC6214108, “Synthesis and In Vitro Antitumor Activity of Novel Bivalent β-Carboline-3-carboxylic Acid Derivatives with DNA as a Potential Target” (International Journal of Molecular Sciences, 2018).

Legend:
calf thymus DNA (CT DNA) = experiment: UV-visible spectral study with CT DNA; type: binding; conditions: 10 μM compound, 200 nM CT DNA additions
Protocol: UV-visible spectroscopy was carried out to determine the binding mode of β-carboline derivatives to DNA (CT DNA) using UV-2500 spectrophotometer (Shimadzu, Kyoto, Japan) at 25 °C. Stock solutions of 10 mM β-carboline derivatives were dissolved in DMSO, and 10 μM CT DNA was prepared in 100 mM KBPES buffer (30 mM Potassium Phosphate with 100 mM KCl, pH 7.0). UV-visible absorption titrations were performed by adding 200 nM CT DNA solution to the quartz cuvette containing approximately 10 μM derivative solutions. UV-Visible absorption spectra were recorded from 200 nm to 350 nm.
Figure 5 UV-visible spectroscopy study of β-carbolines with calf thymus (CT) DNA. UV-visible absorption titrations were done by adding 200 nM CT DNA solution each time to the quartz cuvette containing 10 μM 4B, 6i, 4D, and 6u. The absorption spectra were recorded from 200 nm to 350 nm.

[1] = system: cytochrome C (Cyt C) in mitochondria; experiment: Western blot of cytochrome C in mitochondria; type: cell-based; conditions: A549, 2, 4, and 8 μM, 48 h
Protocol: (§1) The level of cytochrome C (Cyt C) in mitochondria, and the expression of bcl-2 protein, were evaluated by western blot. A549 cells (1 × 10^6 cells per well) seeded into 6-well plates (JET, Guangzhou, China) were incubated with DMEM containing various concentrations (2, 4, and 8 μM) of β-carbolines (6i and 6u) for 48 h at 37 °C and 5% CO2. Then, the cells were lysed with RIPA lysis buffer for 30 min on ice (containing 1% PMSF), centrifuged at 12,000× g for 5 min at 4 °C, and then the supernatants were transferred to 1.5 mL EP tubes. Proteins were separated by sodium dodecyl sulfate-polyacrylamide gel electrophoresis (SDS-PAGE) and blotted on polyvinylidene difluoride (PVDF) membranes (Millipore, Burlington, MA, USA), as previously described. The membranes were blocked for 2 h at r.t. with 5% non-fat milk in TBST buffer (20 mM Tris-HCl,150 mM NaCl and 0.05% Tween-20, pH7.4), and then incubated with the mouse anti-bcl-2 monoclonal antibody (Sigma, Saint Louis, MO, USA), anti-cytochrome C monoclonal antibody (Beyotime, Haimen, China), and anti-β-actin antibody (1:4000 dilution; Abcam, Cambridge, MA, USA) overnight at 4 °C, and finally incubated with the peroxidase conjugated goat anti-mouse IgG (Jackson ImmunoResearch Laboratories, West Grove, PA, USA) at 37 °C for 1 h. […]

bcl-2 protein = experiment: Western blot of bcl-2 protein; type: cell-based; conditions: A549, 2, 4, and 8 μM, 48 h
Protocol: as §1

Row | SMILES | Intercalation ability (UV-visible spectra with CT DNA) (calf thymus DNA (CT DNA)) | Level of Cyt C (in mitochondria), western blot [1] | Expression of bcl-2 protein, western blot (bcl-2 protein)
1 | COC(=O)c1cc2c3ccccc3n(Cc3ccccc3F)c2cn1 [Compound 4D] | very weak | – | –
2 | Cc1ccccc1Cn1c2ccccc2c2cc(C(=O)OCCCCCOC(=O)c3cc4c5ccccc5n(Cc5ccccc5C)c4cn3)ncc21 [Compound 6i] | – | decreased in a dose-dependent manner | decreased in a dose-dependent manner
3 | O=C(OCCCCCOC(=O)c1cc2c3ccccc3n(Cc3ccccc3F)c2cn1)c1cc2c3ccccc3n(Cc3ccccc3F)c2cn1 [Compound 6u] | – | decreased in a dose-dependent manner | decreased in a dose-dependent manner
